PubChem BioAssay (NCI)
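Dose response: 5 concentrations. Exposure: 48 h. Format: 96-well plates. Endpoint: linear interpolation; highest concentration if not reached. At the TGI there is no net growth.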

How the values were obtained:
Assay in all cases: NCI anticancer screen, dose series, 48 h
MOLT-4 leukemia = tested on: MOLT-4 leukemia
HCC-2998 colon = tested on: HCC-2998 colon
T-47D breast = tested on: T-47D breast
ACHN renal = tested on: ACHN renal
SR leukemia = tested on: SR leukemia
RPMI-8226 leukemia = tested on: RPMI-8226 leukemia
HOP-92 NSCLC = tested on: HOP-92 NSCLC
SW-620 colon = tested on: SW-620 colon
CAKI-1 renal = tested on: CAKI-1 renal
SN12C renal = tested on: SN12C renal
UACC-257 melanoma = tested on: UACC-257 melanoma
RXF 393 renal = tested on: RXF 393 renal
U251 CNS = tested on: U251 CNS
KM12 colon = tested on: KM12 colon
OVCAR-3 ovarian = tested on: OVCAR-3 ovarian
NCI-H460 lung = tested on: NCI-H460 lung
NCI/ADR-RES ovarian = tested on: NCI/ADR-RES ovarian
DU-145 prostate = tested on: DU-145 prostate
LOX IMVI melanoma = tested on: LOX IMVI melanoma
SF-295 CNS = tested on: SF-295 CNS

Structure (SMILES)	TGI (MOLT-4 leukemia)	TGI (HCC-2998 colon)	TGI (T-47D breast)	TGI (ACHN renal)	TGI (SR leukemia)	TGI (RPMI-8226 leukemia)	TGI (HOP-92 NSCLC)	TGI (SW-620 colon)	TGI (CAKI-1 renal)	TGI (SN12C renal)	TGI (UACC-257 melanoma)	TGI (RXF 393 renal)	TGI (U251 CNS)	TGI (KM12 colon)	TGI (OVCAR-3 ovarian)	TGI (NCI-H460 lung)	TGI (NCI/ADR-RES ovarian)	TGI (DU-145 prostate)	TGI (LOX IMVI melanoma)	TGI (SF-295 CNS)
Cc1ccc(-c2n[nH]c(=O)[nH]2)cc1[N+](=O)[O-]	> 100 µM	> 100 µM	> 100 µM	> 100 µM	> 100 µM	> 100 µM	> 100 µM	> 100 µM	> 100 µM	> 100 µM	> 100 µM	> 100 µM	> 100 µM	> 100 µM	> 100 µM	> 100 µM	> 100 µM	> 100 µM	> 100 µM	> 100 µM
Cc1cc(C)n(CN(Cn2nc(C)cc2C)C2CCCCC2)n1	–	27.9 µM	76.2 µM	51.9 µM	> 100 µM	38.9 µM	87.5 µM	92.7 µM	97.7 µM	66.3 µM	78.4 µM	50.9 µM	83.6 µM	49.2 µM	56.9 µM	> 100 µM	42.5 µM	62.2 µM	46.3 µM	> 100 µM
Cn1nc(S(N)(=O)=O)s/c1=N/C(N)=S	> 100 µM	> 100 µM	> 100 µM	> 100 µM	> 100 µM	> 100 µM	> 100 µM	> 100 µM	> 100 µM	> 100 µM	> 100 µM	> 100 µM	> 100 µM	> 100 µM	> 100 µM	> 100 µM	> 100 µM	> 100 µM	> 100 µM	> 100 µM
COc1ccc(C2C(C#N)=C(S)N(C3OC(CO)C(O)C(O)C3O)C(c3ccccc3)=C2C(C)=O)cc1 (centres undefined)	> 100 µM	> 100 µM	69.9 µM	> 100 µM	> 100 µM	> 100 µM	> 100 µM	> 100 µM	–	> 100 µM	> 100 µM	> 100 µM	> 100 µM	> 100 µM	> 100 µM	> 100 µM	> 100 µM	> 100 µM	> 100 µM	> 100 µM
O=c1[nH]c(Nc2cccc(Cl)c2)nc2nc[nH]c12	> 100 µM	> 100 µM	> 100 µM	> 100 µM	> 100 µM	> 100 µM	> 100 µM	> 100 µM	> 100 µM	> 100 µM	> 100 µM	> 100 µM	> 100 µM	> 100 µM	> 100 µM	> 100 µM	> 100 µM	> 100 µM	> 100 µM	> 100 µM
Cn1c2ccccc2c2c3c(c4c5ccccc5n(C)c4c21)C(=O)c1ccccc1C3=O	> 100 µM	> 100 µM	> 100 µM	97.3 µM	40.2 µM	> 100 µM	> 100 µM	> 100 µM	> 100 µM	> 100 µM	> 100 µM	48.6 µM	45.9 µM	> 100 µM	> 100 µM	> 100 µM	> 100 µM	> 100 µM	> 100 µM	> 100 µM
NC(N)=NS(=O)(=O)c1ccc(NC(=O)c2ccc3nc4ccccc4c(Nc4ccc(S(N)(=O)=O)cc4)c3c2)cc1	> 100 µM	> 100 µM	> 100 µM	> 100 µM	> 100 µM	> 100 µM	> 100 µM	> 100 µM	> 100 µM	> 100 µM	> 100 µM	> 100 µM	> 100 µM	> 100 µM	> 100 µM	> 100 µM	> 100 µM	> 100 µM	> 100 µM	> 100 µM
CC(=Nc1ccncc1)C(C)=Nc1ccncc1	52.7 µM	47.9 µM	77.7 µM	27.5 µM	67 µM	45 µM	83.5 µM	> 100 µM	30.4 µM	30 µM	> 100 µM	59.8 µM	69.1 µM	> 100 µM	28.8 µM	> 100 µM	> 100 µM	> 100 µM	42.1 µM	> 100 µM
CC1(COS(=O)(=O)OCC2(C)COS(=O)(=O)OC2)COS(=O)(=O)OC1	> 81.5 µM	> 100 µM	> 100 µM	> 74 µM	> 56.9 µM	> 50.1 µM	> 63.8 µM	> 100 µM	> 100 µM	> 32.1 µM	> 100 µM	> 100 µM	> 100 µM	> 77.3 µM	> 100 µM	> 100 µM	> 100 µM	> 88.6 µM	> 77.9 µM	> 100 µM
COc1ccc(/C=C2\N=C(c3ccccc3)N(C3Nc4cc5c(cc4S3)NC(N3C(=O)/C(=C/c4ccc(OC)cc4)N=C3c3ccccc3)S5)C2=O)cc1 (centres undefined)	> 100 µM	97.7 µM	> 100 µM	> 100 µM	> 100 µM	86.7 µM	> 100 µM	> 100 µM	> 100 µM	–	> 100 µM	> 100 µM	63.7 µM	> 100 µM	> 100 µM	> 100 µM	48 µM	> 100 µM	> 100 µM	> 100 µM
Cc1cc(=O)oc2cc(O)ccc12	> 100 µM	> 100 µM	> 100 µM	> 100 µM	> 100 µM	> 100 µM	> 100 µM	> 100 µM	> 100 µM	> 100 µM	> 100 µM	> 100 µM	> 100 µM	> 100 µM	> 100 µM	> 100 µM	> 100 µM	> 100 µM	> 100 µM	> 100 µM
COc1cccc(-c2cc(=O)c3ccc(C)nc3[nH]2)c1	> 94.7 µM	2.12 µM	> 100 µM	> 100 µM	0.0503 µM	1.78 µM	3.85 µM	> 100 µM	> 81.8 µM	> 100 µM	–	> 100 µM	> 100 µM	–	–	> 100 µM	> 100 µM	3.7 µM	> 100 µM	> 100 µM
CSC1=NS(=O)(=O)c2cc(C(=O)NN(C)C(=O)c3cc4c(cc3Cl)SC(SC)=NS4(=O)=O)c(Cl)cc2S1	> 10 µM	> 10 µM	> 10 µM	> 10 µM	> 10 µM	> 10 µM	> 10 µM	> 10 µM	> 10 µM	> 10 µM	> 10 µM	> 10 µM	> 10 µM	> 10 µM	> 10 µM	> 10 µM	> 10 µM	> 10 µM	> 10 µM	> 10 µM
CC(C)N(C)C(=O)C12C3C4C1C1C2C3C41C#N (centres undefined)	> 100 µM	> 100 µM	> 100 µM	> 100 µM	> 100 µM	–	> 100 µM	> 100 µM	> 100 µM	> 100 µM	> 100 µM	> 100 µM	> 100 µM	> 100 µM	> 100 µM	> 100 µM	> 100 µM	> 100 µM	> 100 µM	> 100 µM
[N-]=[N+]=Nc1ccc(CNc2cc(=O)[nH]c(=O)[nH]2)cc1	> 100 µM	> 100 µM	> 100 µM	> 100 µM	> 100 µM	> 100 µM	> 100 µM	> 100 µM	> 100 µM	> 100 µM	> 100 µM	> 100 µM	> 100 µM	> 100 µM	> 100 µM	> 100 µM	> 100 µM	> 100 µM	> 100 µM	> 100 µM
COc1cc2c(/C=C3/C(=O)N(c4ccccc4)c4ccccc43)c(Cl)[nH]c2cc1C	9 µM	8.37 µM	7.5 µM	> 49.2 µM	30.5 µM	7.01 µM	> 78.4 µM	> 100 µM	> 59.5 µM	6.29 µM	21.3 µM	> 81.4 µM	> 33.3 µM	8.07 µM	9.66 µM	9.04 µM	6.49 µM	9.82 µM	10.2 µM	> 22.3 µM
CSc1cc(N)ccc1N=Nc1ccc(S(N)(=O)=O)cc1	> 100 µM	> 100 µM	58.3 µM	93 µM	> 100 µM	38.4 µM	68.2 µM	> 100 µM	> 100 µM	> 100 µM	> 100 µM	> 100 µM	> 100 µM	92.2 µM	68.5 µM	71.6 µM	91.2 µM	> 100 µM	> 100 µM	56.6 µM
COc1cc(S(=O)(=O)Nc2ccc(-c3csc(N4C(=O)CSC4c4ccccc4)n3)cc2)ccc1Cl (centres undefined)	> 100 µM	42.4 µM	44.7 µM	> 100 µM	> 100 µM	89.3 µM	54.4 µM	> 100 µM	> 100 µM	> 100 µM	> 100 µM	64.5 µM	–	> 100 µM	> 100 µM	> 100 µM	> 100 µM	> 100 µM	> 100 µM	> 100 µM
CCc1c(C)c(C#N)c(=S)n(C2OC(CO)C(O)C(O)C2O)c1C (centres undefined)	> 100 µM	> 100 µM	> 100 µM	> 100 µM	> 100 µM	–	> 100 µM	> 100 µM	–	> 100 µM	> 100 µM	> 100 µM	> 100 µM	> 100 µM	> 100 µM	> 100 µM	> 100 µM	> 100 µM	> 100 µM	> 100 µM
CC(=O)c1cc2ccccc2n(O)c1=N	> 100 µM	> 100 µM	> 100 µM	> 100 µM	> 100 µM	–	> 100 µM	–	> 100 µM	> 100 µM	> 100 µM	> 100 µM	> 100 µM	> 100 µM	> 100 µM	> 100 µM	> 100 µM	> 100 µM	> 100 µM	> 100 µM
COc1c2cc(C(C)(C)C)cc1Cc1cccc(c1O)Cc1cc(C(C)(C)C)cc(c1OC)Cc1cccc(c1O)Cc1cc(C(C)(C)C)cc(c1OC)Cc1cccc(c1O)C2	> 100 µM	> 100 µM	> 100 µM	> 100 µM	> 100 µM	> 100 µM	> 100 µM	> 100 µM	> 100 µM	> 100 µM	> 100 µM	> 100 µM	> 100 µM	> 100 µM	> 100 µM	> 100 µM	> 100 µM	> 100 µM	–	> 100 µM
CC1(C)Oc2ccc(NC(=O)CCC(N)C(=O)O)cc2O1 (centres undefined)	> 100 µM	> 100 µM	> 100 µM	> 100 µM	> 100 µM	> 100 µM	> 100 µM	> 100 µM	> 100 µM	> 100 µM	–	> 100 µM	> 100 µM	> 100 µM	> 100 µM	> 100 µM	> 100 µM	> 100 µM	> 100 µM	> 100 µM
Cc1ccc(SC(=O)N2C(=S)NC(=NC3CCCCC3)C23CCCCC3)cc1	–	> 100 µM	> 100 µM	> 100 µM	> 100 µM	> 100 µM	> 100 µM	> 100 µM	> 100 µM	> 100 µM	> 100 µM	> 100 µM	> 100 µM	> 100 µM	> 100 µM	> 100 µM	> 100 µM	> 100 µM	> 100 µM	> 100 µM
O=C1/C(=C2\Sc3c(ccc(Cl)c3Cl)C2=O)Sc2c1ccc(Cl)c2Cl	> 100 µM	> 100 µM	> 100 µM	> 100 µM	> 100 µM	> 100 µM	> 100 µM	> 100 µM	> 100 µM	> 100 µM	> 100 µM	> 100 µM	> 100 µM	> 100 µM	> 100 µM	> 100 µM	> 100 µM	> 100 µM	–	> 100 µM
